The values that follow come from BindingDB's records for doi:10.7270/Q2V986KM (Burnham Center For Chemical Genomics, 2011).

For this experiment, the target named is T1, Carboxy-terminal domain RNA polymerase II polypeptide A small phosphatase 1 (Homo sapiens, UniProt Q9GZU7).
T1 sequence (Q9GZU7 whole entry): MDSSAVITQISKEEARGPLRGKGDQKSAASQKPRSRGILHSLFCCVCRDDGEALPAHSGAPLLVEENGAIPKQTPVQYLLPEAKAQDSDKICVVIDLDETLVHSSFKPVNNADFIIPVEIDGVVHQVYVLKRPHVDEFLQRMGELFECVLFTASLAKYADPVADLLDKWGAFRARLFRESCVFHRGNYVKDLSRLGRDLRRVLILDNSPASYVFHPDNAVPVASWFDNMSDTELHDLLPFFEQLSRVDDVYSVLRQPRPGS
Description: CTDSP1 inhibitors, concentration-response, biochemical, absorbance-based, ultra-high-throughput screen actives (AID 540297).
As a reminder, the IC50 is the midpoint of a concentration-inhibition curve. Regarding `CC1(CC(=O)NN=CC2C=C([N+](=O)[O-])C(=O)C=C2O)OCCO1` (configuration not stated) [N'-[(E)-(2-hydroxy-5-nitro-4-oxocyclohexa-2,5-dien-1-ylidene)methyl]-2-(2-methyl-1,3-dioxolan-2-yl)acetohydrazide], the IC50 stood at 4.41 µM.

The compound `O=C(CCCC(=O)Nc1cccc(Br)c1)N/N=C/C1C=C([N+](=O)[O-])C=CC1=O` (configuration not stated) displayed a 50% inhibitory concentration (IC50) of 6.26 µM. Under `COC(=O)C1C(COc2ccccc2)=NC(=O)NC1c1ccc2ccccc2c1` (configuration not stated) stands 13.8 µM.

As to `C/C(C=NNC(=O)c1ccc(Br)cc1)=C\c1ccccc1` [SMR000140417], half-maximal inhibition (IC50) required 4.83 µM. The figure for `CC1=CC(=NNC(=O)c2ccccc2O)c2ccccc2C1=O` [MLS000685531] is 5.15 µM; for `Cc1ccc(-c2csc(-n3[nH]c(C)c(N=Nc4ccccc4O)c3=O)n2)cc1` it is 3.69 µM. `COc1ccccc1NC(=O)CN1C(=O)/C(=N\NC(=O)c2ccccc2O)c2ccccc21` [2-hydroxy-N-[(Z)-[1-[2-(2-methoxyanilino)-2-oxoethyl]-2-oxo-3-indolylidene]amino]benzamide] yielded an IC50 of 2.74 µM. Consider `C=CC1=C(C(=O)O)N2C(=O)[C@@H](NC(=O)C(N=O)c3csc(N)n3)[C@H]2SC1` (stereo partly drawn) [(6R,7R)-7-[[2-(2-azanyl-1,3-thiazol-4-yl)-2-hydroxyimino-ethanoyl]amino]-3-ethenyl-8-oxidanylidene-5-thia-1-azabicyclo[4.2.0]oct-2-ene-2-carboxylic acid], for which the 50% inhibitory concentration (IC50) came out at 4.48 µM.

For `O=C(NN=C/C=C/c1ccc(Br)cc1)c1ccc2c(c1)OCO2` [Benzo[1,3]dioxole-5-carboxylic acid [3-(4-bromo-phenyl)-allylidene]-hydrazide], the IC50 was 4.92 µM.

`CSc1nnc(C)c(CC=Nc2ccc(F)cc2F)n1` [MLS000707071] came in with an IC50 of 13.3 µM. Under `O=NCc1cccn1-c1cccc(C(=O)O)c1` [3-[2-(hydroximinomethyl)pyrrol-1-yl]benzoic acid] stands 3.09 µM. Take `COc1ccc(CN=Nc2nc(O)c(CC(=O)O)s2)cc1OCc1ccc(Cl)cc1Cl` [[2-({3-[(2,4-dichlorobenzyl)oxy]-4-methoxybenzylidene}hydrazono)-4-oxo-1,3-thiazolidin-5-yl]acetic acid]: the IC50 worked out at 4.48 µM. The figure for `Cc1ccccc1NC(=O)CN1C(=O)/C(=N\NC(=O)c2ccccc2O)c2ccccc21` [2-{3-[(2-Hydroxy-benzoyl)-hydrazono]-2-oxo-2,3-dihydro-indol-1-yl}-N-o-tolyl-acetamide] is 1.23 µM; for `O=C(CSc1nc(O)cc(=O)[nH]1)Nc1ccccc1[N+](=O)[O-]` [SMR000620617] it is 4.04 µM. In the case of `Cc1ccc(C(=O)N[n+]2cc(O)[c-](-c3nc(-c4cccc([N+](=O)[O-])c4)cs3)c2N)cc1` [MLS000391743], it took 4.06 µM to reach half-maximal inhibition (IC50). As to `O=c1cc(O)[n+]2nc(-c3ccc([N+](=O)[O-])cc3)sc2[n-]1` [SMR000175134], the 50% inhibitory concentration (IC50) stood at 5.67 µM. The compound `Cc1ccc(-n2[nH]c(C)c(CN=Nc3ccc([N+](=O)[O-])cc3[N+](=O)[O-])c2=O)cc1C` [(4E)-2-(3,4-dimethylphenyl)-4-[[(2,4-dinitrophenyl)hydrazo]methylidene]-5-methyl-3-pyrazolone] had an IC50 of 3.32 µM. `COc1cc(CN=Nc2nc(O)c(CC(=O)O)s2)ccc1OCc1ccc(Cl)cc1` [2-[2-[2-[[4-[(4-chlorophenyl)methoxy]-3-methoxy-phenyl]methylidene]hydrazinyl]-4-oxidanylidene-1,3-thiazol-5-yl]ethanoic acid] had an IC50 of 12.4 µM.

The compound `CCN(CC)P(=O)(NC(=O)C(Cl)(Cl)Cl)N(CC)CC` [MLS000564159] displayed an IC50 of 2.49 µM. Under `COc1ccccc1N/C(C)=[N+](\C)CCNS(=O)(=O)c1ccc(Cl)cc1` [MLS001165874] stands 3.73 µM; under `N#CC1=c2sc(=Cc3ccco3)c(=O)n2C(=N)C(C#N)C1c1ccco1` (configuration not stated) [5-amino-7-(furan-2-yl)-2-(furan-2-ylmethylidene)-3-oxo-7H-[1,3]thiazolo[3,2-a]pyridine-6,8-dicarbonitrile], 3.44 µM.

`O=NCc1cc(Br)ccc1OCC(=O)O` [2-[4-bromanyl-2-(hydroxyiminomethyl)phenoxy]ethanoic acid]: the IC50 stood at 8.03 µM. The figure for `C=c1[nH]c(=Cc2ccc(CNC(=O)C(=O)Nc3ccccc3)o2)c(O)c1C(=O)OCC` [(5E)-5-[[5-[[(2-anilino-1,2-dioxoethyl)amino]methyl]-2-furanyl]methylidene]-2-methyl-4-oxo-1H-pyrrole-3-carboxylic acid ethyl ester] is 8.55 µM.

Regarding `C/C(Nc1ccc(F)cc1)=[N+](/C)CCNS(=O)(=O)c1ccc(Cl)cc1`, half-maximal inhibition (IC50) required 5.86 µM. In turn, `Cc1ccc(OCC(=O)N/N=C/c2ccc(O)c([N+](=O)[O-])c2)c([N+](=O)[O-])c1` [SMR000312577] came in with an IC50 of 8.42 µM. `C=CCC1C=C(/C=C/c2nc(O)c([N+](=O)[O-])c(=O)[nH]2)C=C(OC)C1=O` (configuration not stated) [MLS000716350] yielded an IC50 of 19.3 µM. For the compound `CCOC(=O)C1C(COC(=O)C=Cc2ccco2)=NC(=O)NC1C` (configuration not stated), the IC50 is 4.25 µM.

On to `COc1ccc(N/C(C)=[N+](\C)CCNS(=O)(=O)c2ccc(Cl)cc2)cc1`, for which the IC50 is 3.29 µM. In turn, `O=C(NN=C/C=C\c1ccco1)c1ccccn1` [Pyridine-2-carboxylic acid [(Z)-3-furan-2-yl-prop-2-en-(E)-ylidene]-hydrazide] registered a half-inhibitory concentration (IC50) of 14.5 µM. Under `CCOc1cc(CN=Nc2nc(O)c(CC(=O)O)s2)ccc1OCc1ccccc1Cl` stands 4.28 µM; under `Cc1[nH][nH]c(=O)c1CCC(=O)NN=Cc1ccco1`, over 80 µM. Under `O=C(NN=C/C=C/c1ccccc1)c1cc2c(ccc3ccccc32)o1` [N-[[(E)-3-phenylprop-2-enylidene]amino]-2-benzo[e]benzofurancarboxamide] stands 1.72 µM; under `Cc1ccc(-c2csc(-c3c(O)cn(NC(=O)c4ccco4)c3N)n2)cc1` [SMR000363171], 12.9 µM. The figure for `CON=C(C(=O)N[C@@H]1C(=O)N2C(C(=O)O)=C(COC(N)=O)CS[C@H]12)c1ccco1` is 2.09 µM. Consider `O=C1C=CC(/C=C/c2nc(O)c([N+](=O)[O-])c(=O)[nH]2)C=C1O` (configuration not stated) [SMR000524347], for which the IC50 amounted to 36.1 µM.

Consider `CCOc1ccccc1C(=O)c1cc(O)c2ccccc2c1O` [2-[(2-ethoxyphenyl)-oxidanyl-methyl]naphthalene-1,4-dione], for which the IC50 was 4.16 µM. Under `CCOc1ccccc1/N=C1\SCCCN1C` stands 23 µM; under `O=C(O)CNC(=O)Cc1sc(NNc2nc(O)cs2)nc1O`, 5.27 µM; under `C[N+](C)(C)CCNC(=O)C1=C/C(=C\N=O)N(Cc2ccccc2)C=C1`, 7.56 µM. The figure for `COc1ccc(CN=Nc2ncc(Br)cn2)c(OC)c1` [MLS000856301] is 19.6 µM; for `Cc1cc(=O)n(-c2ccc(Cl)c(C(=O)O)c2)[nH]1` [2-Chloro-5-(3-methyl-5-oxo-4,5-dihydro-pyrazol-1-yl)-benzoic acid] it is 8.96 µM; for `COc1cccc(N/C(C)=[N+](\C)CCNS(=O)(=O)c2ccc(Cl)cc2)c1` [SMR000672481] it is 3.46 µM. Under `Cc1ccc2c(c1)=C(NNC(=O)c1ccc(NS(=O)(=O)c3cccs3)cc1)C(=O)N=2` [N-[4-[[(5-methyl-2-oxoindol-3-yl)amino]carbamoyl]phenyl]thiophene-2-sulfonamide] stands 11.5 µM; under `O=c1c(Cl)c(N=NCc2ccc(Br)cc2)cnn1-c1ccccc1`, over 80 µM. For `O=C1CC(=O)c2cccc(O)c2C1=O` [4,8-dihydroxynaphthalene-1,2-dione], half-maximal inhibition (IC50) was put at 44.5 µM. In turn, `CC(=NNC(=O)c1cc(-c2cccc([N+](=O)[O-])c2)n[nH]1)C1C=CC=CC1=O` (configuration not stated) [3-(3-nitrophenyl)-N'-[(1E)-1-(6-oxo-1-cyclohexa-2,4-dienylidene)ethyl]-1H-pyrazole-5-carbohydrazide] returned an IC50 of 1.7 µM. The compound `O=C1C=C(O)/C(=C/NN2C(=O)C3C(C2=O)C2C=CC3C23CC3)C=C1[N+](=O)[O-]` (configuration not stated) [MLS000705206] came in with an IC50 of 4.9 µM.

The compound `C[N+]1=C(CC=Nc2ccccc2Cl)C(C)(C)c2ccccc21` [SMR000173746] gave an IC50 of 5.96 µM. The figure for `Cc1ccc(-n2[nH]c(C)c(CN=Nc3ccc([N+](=O)[O-])cc3[N+](=O)[O-])c2=O)cc1` [SMR000171521] is 6.07 µM; for `Cc1ccc(C(=O)NN=C/C=C/c2ccc(Br)cc2)cn1` [MLS000723380] it is 24.1 µM; for `Cc1cccc(C(=O)/N=c2\c(C#N)cc3c(=O)n4cccc(C)c4nc3n2Cc2ccco2)c1` [N-[3-cyano-1-(furan-2-ylmethyl)-10-methyl-5-oxodipyrido[3,4-c:1',2'-f]pyrimidin-2-ylidene]-3-methylbenzamide] it is 5.58 µM. In the case of `Cc1cccc(NC(=O)CN2C(=O)/C(=N\NC(=O)c3ccccc3O)c3ccccc32)c1` [MLS000548432], the IC50 came out at 1.99 µM. Compound `CCCCC1(C)OC(=O)C(=Cc2ccc(-c3ccc(Cl)c(C(=O)O)c3)o2)C(=O)O1` (configuration not stated) came in with an IC50 of 15.1 µM. The figure for `O=C(O)CCC(N=Nc1ccc(S(=O)(=O)N2CCCC2)cc1[N+](=O)[O-])c1cccs1` (configuration not stated) [4-[(2-nitro-4-pyrrolidin-1-ylsulfonyl-phenyl)hydrazinylidene]-4-thiophen-2-yl-butanoic acid] is 15.5 µM; for `O=C1Nc2ccc([N+](=O)[O-])cc2/C1=N/NC(=O)c1ccccc1Cl` [2-chloro-N'-(5-nitro-2-oxoindol-3-yl)benzohydrazide] it is 6.44 µM; for `Cc1nnc(NS(=O)(=O)c2ccc(/N=N/c3ccc(N)nc3N)cc2)s1` it is 11.5 µM.

On to `CCOc1cc(CN=Nc2nc(O)c(CC(=O)O)s2)ccc1OCc1ccc(Cl)cc1Cl` [2-[2-[(N''E)-N''-[4-(2,4-dichlorobenzyl)oxy-3-ethoxy-benzylidene]hydrazino]-4-keto-2-thiazolin-5-yl]acetic acid], for which the IC50 stood at 2.32 µM.
